“Also recorded” adds a separate entry of the source.
Columns and labels:
[1] = system: ovariectomized white mice; assay: Therapeutic effect on osteoporosis: tibia histology, oral administration from four weeks after ovariectomy; type: in vivo; details: four weeks to develop osteoporosis, then oral 220 μl/day for four weeks, versus control
Experimental: In order to evaluate effects of the compound of the present invention on treatment and prevention of osteoporosis, female white mice with osteoporosis induced by ovariectomy were used as a disease model. After ovariectomy, mice were administered with the compound of the present invention. Tibias were dissected from the mice, and observed histologically.
After anesthetizing female white mice with 100 mg/kg of Ketamine (Ketara) and 0.15 ml/kg of 2% Xylazine (Rompun), the lumbar dorsum is shaved bilaterally and the exposed skin was prepared for aseptic surgery by a 10% povidone-iodine scrub followed by a 70% alcohol wipe.
A 1-cm incision was made in the central region of the abdomen, and the ovary was identified along with the uterus with caution not to damage the main organs such as the liver and diaphragm. After ligating the uterus with a thread for suturing, the exposed ovary was severed toward both sides and removed. Thereafter, each organ was relocated to its original position, and the incision was closed with a thread for suturing in an interrupted pattern. After ovariectomy, the mice were injected with 50 mg/kg of cefazolin antibiotic for prevention of infection with pathogens.
In order to evaluate therapeutic effect of the Compound 1 on osteoporosis, after ovariectomy, the mice were fed with solid feedstuff for four weeks. […]

Runx2 = Runx2 expression, p6xOSE2-Luc luciferase assay in C2C12 cells; type: cell-based, mouse; details: concentration not given
Experimental: In the following tests, three kinds of cell lines were used. The human osteosarcoma cell lines, MG-63 (ATCC No. CRL-1427) and HOS (ATCC No. CRL-1543), and mouse muscle C2C12 muscle cells (ATCC No. CRL-1772) were purchased from ATCC (American Type Culture Collection, Rockville, USA), and cultured in Dulbecco's modified Eagle's medium (DMEM) supplemented with 10% fetal bovine serum (FBS).
Primarily, transient transfection was carried out using a p6xOSE2-Luc vector, which was prepared by inserting into a pGL3 promoter vector six tandem copies of the OSE2 motif, the binding site of the transcriptional factor Runx2 that is a critical regulator for osteoblast differentiation. Runx2 expression levels were determined by luciferase assay. The test procedure will be described in more detail, as follows.
C2C12 cells were plated onto 6-well plates at a density of 1 (10^5 cells per well, and cultured for 24 hrs in a 5% CO2 incubator.
Then, the cells transiently transfected with the p6xOSE2-Luc vector using a transfection reagent, LipofectAmine, as follows. The plasmid DNA was reacted with the transfection reagent for 15 min to form p6xOSE2-Luc DNA:lipofectamine complexes. During this reaction, culture medium was removed from each well of the plates, the cells were washed with FBS-free DMEM, and 800 μl of FBS-free DMEM was added to each well. […]

**Q.** What does the source list for O=Cc1ccc(CO)o1 [Compound 1, 5-hydroxymethylfuran-2-carboxyaldehyde]?
**A.** Trabecular bone density of tibia, light microscopy [1]: just a slight decrease in trabecular bone density; also recorded: no trabecular bone loss; Activity of Runx2 (in words) (Runx2): increase the activity of Runx2
